Biological target: T1, JAK2 (Homo sapiens, UniProt O60674)
T1 construct: purchased Thermo Fisher Scientific (Life Technologies) SelectScreen
Test: SelectScreen Z'LYTE
Format: biochemical
Procedure, shortened: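 NU5455 was profiled across the SelectScreen Broad panel of kinase activity and binding assays. Z'LYTE reactions such as CSF1R ran at apparent Km ATP, while the Adapta CAMK1 assay used ATP listed as 10. Values are given as percent.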

T1 sequence (O60674 whole entry): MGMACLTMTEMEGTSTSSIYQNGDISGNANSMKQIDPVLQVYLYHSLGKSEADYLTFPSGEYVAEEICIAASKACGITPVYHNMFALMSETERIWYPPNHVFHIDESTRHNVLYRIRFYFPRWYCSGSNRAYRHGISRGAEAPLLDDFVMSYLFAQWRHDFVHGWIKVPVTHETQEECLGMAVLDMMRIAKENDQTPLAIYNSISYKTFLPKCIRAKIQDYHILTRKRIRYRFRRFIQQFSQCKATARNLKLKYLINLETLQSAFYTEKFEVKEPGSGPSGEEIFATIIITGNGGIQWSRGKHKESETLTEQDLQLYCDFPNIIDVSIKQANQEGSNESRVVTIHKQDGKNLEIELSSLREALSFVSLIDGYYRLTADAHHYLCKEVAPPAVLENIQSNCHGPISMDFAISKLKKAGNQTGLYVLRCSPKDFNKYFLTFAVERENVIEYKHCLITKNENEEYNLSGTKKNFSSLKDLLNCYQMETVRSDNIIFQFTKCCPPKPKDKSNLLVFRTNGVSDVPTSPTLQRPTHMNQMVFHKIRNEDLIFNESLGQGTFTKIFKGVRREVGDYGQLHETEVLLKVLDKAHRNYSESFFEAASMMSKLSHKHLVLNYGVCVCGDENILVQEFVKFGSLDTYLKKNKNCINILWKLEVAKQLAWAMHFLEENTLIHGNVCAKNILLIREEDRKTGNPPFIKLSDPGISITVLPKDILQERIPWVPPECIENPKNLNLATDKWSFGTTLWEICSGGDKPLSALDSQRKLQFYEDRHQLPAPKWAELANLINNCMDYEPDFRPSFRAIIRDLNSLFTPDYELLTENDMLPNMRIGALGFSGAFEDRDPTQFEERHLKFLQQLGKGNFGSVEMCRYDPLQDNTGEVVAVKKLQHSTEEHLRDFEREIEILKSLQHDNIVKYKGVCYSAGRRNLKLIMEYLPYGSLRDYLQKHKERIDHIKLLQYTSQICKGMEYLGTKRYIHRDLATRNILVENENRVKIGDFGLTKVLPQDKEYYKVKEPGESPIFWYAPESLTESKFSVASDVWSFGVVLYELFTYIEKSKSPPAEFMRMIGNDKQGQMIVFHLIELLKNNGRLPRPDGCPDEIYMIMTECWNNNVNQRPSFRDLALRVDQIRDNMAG

CN(C(=O)CN1CCOCC1)c1ccc2sc3c(-c4cccc5c(=O)cc(N6CC7CCC(C6)O7)oc45)cccc3c2c1 [NU5455]
inhibition at 1 µM: 2.5%

From paper PMC6934184, “Selective DNA-PKcs inhibition extends the therapeutic index of localized radiotherapy and chemotherapy” (The Journal of Clinical Investigation, 2019)
